# Test results published in US6358947B1 (American Home Products Corporation, priority 1999, dated 2002).
# Target: T1, hAR (Homo sapiens, UniProt P10275)
# T1 sequence (P10275 1-920): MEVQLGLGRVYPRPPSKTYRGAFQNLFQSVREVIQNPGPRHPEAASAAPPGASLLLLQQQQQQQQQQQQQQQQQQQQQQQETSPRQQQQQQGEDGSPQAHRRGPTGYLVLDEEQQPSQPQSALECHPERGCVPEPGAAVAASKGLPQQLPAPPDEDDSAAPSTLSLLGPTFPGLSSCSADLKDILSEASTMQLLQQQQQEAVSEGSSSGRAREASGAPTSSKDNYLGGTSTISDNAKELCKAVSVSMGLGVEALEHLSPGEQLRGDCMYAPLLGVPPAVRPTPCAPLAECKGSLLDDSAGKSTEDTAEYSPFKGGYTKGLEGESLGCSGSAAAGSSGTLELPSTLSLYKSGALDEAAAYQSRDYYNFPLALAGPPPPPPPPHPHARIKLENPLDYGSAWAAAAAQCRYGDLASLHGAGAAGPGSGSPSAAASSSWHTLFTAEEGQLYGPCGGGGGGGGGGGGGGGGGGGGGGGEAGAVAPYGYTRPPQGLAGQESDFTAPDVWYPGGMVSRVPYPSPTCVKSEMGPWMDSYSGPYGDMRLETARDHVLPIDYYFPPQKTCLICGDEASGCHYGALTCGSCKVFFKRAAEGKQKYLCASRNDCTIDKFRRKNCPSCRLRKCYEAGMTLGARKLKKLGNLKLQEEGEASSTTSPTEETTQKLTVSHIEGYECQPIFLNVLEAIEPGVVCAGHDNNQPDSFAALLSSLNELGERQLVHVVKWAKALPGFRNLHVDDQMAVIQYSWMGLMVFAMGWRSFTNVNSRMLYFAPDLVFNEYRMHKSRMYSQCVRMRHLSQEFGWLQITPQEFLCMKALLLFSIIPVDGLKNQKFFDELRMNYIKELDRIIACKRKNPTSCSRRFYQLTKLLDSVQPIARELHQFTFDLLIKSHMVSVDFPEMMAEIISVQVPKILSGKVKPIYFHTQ
# Assay: Cotransfection assay, AR agonist
# Format: cell-based
# Conditions: read-out: AR Potency Agon
row,EC50,SMILES
1,> 10 µM,"CC1(C)OC(=O)Nc2ccc3c(c21)COc1c(F)cccc1-3 [Compound 14, 7-Fluoro-4,4-dimethyl-5H-chromeno[3,4-f]-1,3-benzo[d]oxazin-2-one]"
2,> 10 µM,"CC1(C)OC(=O)Nc2ccc3c(c21)COc1c(F)cc(Br)cc1-3 [Compound 20, 9-Bromo-7-fluoro-4,4-dimethyl-5H-chromeno[3,4-f]-1,3-benzo[d]oxazin-2-one]"
3,> 10 µM,"CC1(C)OC(=O)Nc2ccc3c(c21)COc1c(F)cc(C=O)cc1-3 [Compound 24, 7-fluoro-9-formyl-4,4-dimethyl-5H-chromeno[3,4-f]-1,3-benzo[d]oxazin-2-one]"
4,> 10 µM,"CC1(C)OC(=O)Nc2ccc3c(c21)COc1c(F)cc(C=NO)cc1-3 [Compound 25, 7-fluoro-9-hydroxyiminomethyl-4,4-dimethyl-5H-chromeno[3,4-f]-1,3-benzo[d]oxazin-2-one]"
5,> 10 µM,"CC1(C)OC(=O)Nc2ccc3c(c21)COc1c(F)cc(C#N)cc1-3 [Compound 26, 9-cyano-7-fluoro-4,4-dimethyl-5H-chromeno[3,4-f]-1,3-benzo[d]oxazin-2-one]"
